US20240398771A1, “TREATMENT OF SCLERODERMA AND RAYNAUD'S SYNDROME” (Aisa Pharma, Inc., priority 2023, published 2024)

Key:
[1] = oral dosing; cited from earlier work
participants with SSc-RP = assay: Average duration of weekly symptomatic RP attacks (minutes); assay type: in vivo, human; settings: Excluding Outliers, ITT Part A, Baseline RCS subgroup 1 (Table B-4, stratum not given)
From the text: The relevant metrics measured by this tool daily are: • Study medication • SSc-RP symptoms (Reporting an attack including duration of attack) • Severity of the attack considering all symptoms of the attack e.g. tingling, numbness, pain, color changes (VAS 0-10 cm scale) • Participant's location at the time of the attack (inside home/outside home) • Selecting symptoms experienced during the attack (tingling, numbness, pain, color changes, other) • Pain rating during the attack (11-point Likert scale) • The RCS based on how much difficulty participants had with Raynaud's today, how many attacks the participant had, and how long they lasted. Participants will also be asked to consider how much pain, numbness, or other symptoms the Raynaud's caused in fingers (including painful sores), and how much the Raynaud's alone affected the use of hands today (VAS 0-10 cm scale).
The absolute change in average duration of weekly RP attacks from baseline to the end of each dosing period was and will be a secondary outcome variable. The sponsor-developed participant-informed diary was and will be used to record data. Average duration of weekly RP attacks is defined as the total duration of RP attacks divided by total number of RP attacks within the last 7 days of each dosing period. Total duration of RP attacks during the last 7 days of screening period divided by the total number of RP attacks will be used as baseline for the analysis of all periods. The variable will be calculated similar to frequency data as before.

[2] = last 7 days of dosing period, listed as Cilnidipine 10 mg
[3] = last 7 days of dosing period, listed as Cilnidipine 20 mg
[4] = last 7 days of dosing period, listed as Pooled Cilnidipine
[5] = last 7 days of screening period, listed as Cilnidipine 10 mg
[6] = last 7 days of screening period, listed as Cilnidipine 20 mg
[7] = last 7 days of screening period, listed as Pooled Cilnidipine

For `COCCOC(=O)C1=C(C)NC(C)=C(C(=O)OC/C=C/c2ccccc2)C1c1cccc([N+](=O)[O-])c1` (centres unmarked) [Cilnidipine, 1,4-dihydro-2,6-dimethyl,4-(3-nitrophenyl)-3,5-pyridinedicarboxylic acid 2-methoxyethyl (2 E)-3-phenyl-2-propenyl ester], the “time to achieve maximal plasma concentrations (Tmax)” value [1] is listed as “about 2 hours”, the “Average Duration of weekly symptomatic RP attacks, Max” value (participants with SSc-RP; [2]) is listed as 31.6, 31.6 minutes and the “Average Duration of weekly symptomatic RP attacks, Mean” value (participants with SSc-RP; [2]) is listed as 31.64 min. The “Average Duration of weekly symptomatic RP attacks, Min” value (participants with SSc-RP; [2]) was 31.6, 31.6 minutes, the “Average Duration of weekly symptomatic RP attacks, Q3” value (participants with SSc-RP; [2]) was 31.64, 31.64 minutes and the “Average duration of weekly symptomatic RP attacks, Change from Baseline, Max” value (participants with SSc-RP; [2]) was −16.7, −16.7 minutes. For the same compound, the “Average duration of weekly symptomatic RP attacks, Change from Baseline, Min” value (participants with SSc-RP; [2]) was −16.7, −16.7 minutes, the “Average duration of weekly symptomatic RP attacks, Change from Baseline, Q1” value (participants with SSc-RP; [2]) was −16.74, −16.74 minutes and the “Average duration of weekly symptomatic RP attacks, Percent Change from Baseline, Max” value (participants with SSc-RP; [2]) was −34.6, −34.6%. For the same compound, the “Average Duration of weekly symptomatic RP attacks” value (participants with SSc-RP; [3]) was 3.0 min, the “Average Duration of weekly symptomatic RP attacks, Max” value (participants with SSc-RP; [3]) was 30.5 min and the “Average Duration of weekly symptomatic RP attacks, Q1” value (participants with SSc-RP; [3]) was 3.00 min. The “Average Duration of weekly symptomatic RP attacks, Q3” value (participants with SSc-RP; [3]) was 30.45 min, the “Average duration of weekly symptomatic RP attacks, Change from Baseline” value (participants with SSc-RP; [3]) was -10.3 min and the “Average duration of weekly symptomatic RP attacks, Change from Baseline, Max” value (participants with SSc-RP; [3]) was 4.1 min. The “Average duration of weekly symptomatic RP attacks, Change from Baseline, Mean” value (participants with SSc-RP; [3]) was -3.13 min, the “Average duration of weekly symptomatic RP attacks, Change from Baseline, Median” value (participants with SSc-RP; [3]) was -3.13 min and the “Average duration of weekly symptomatic RP attacks, Change from Baseline, Q1” value (participants with SSc-RP; [3]) was -10.33 min. The “Average duration of weekly symptomatic RP attacks, Change from Baseline, Q3” value (participants with SSc-RP; [3]) was 4.07 min, the “Average duration of weekly symptomatic RP attacks, Percent Change from Baseline, Max” value (participants with SSc-RP; [3]) was 15.4% and the “Average duration of weekly symptomatic RP attacks, Percent Change from Baseline, Mean” value (participants with SSc-RP; [3]) was −31.05%. For the same compound, the “Average duration of weekly symptomatic RP attacks, Percent Change from Baseline, Median” value (participants with SSc-RP; [3]) was −31.05%, the “Average duration of weekly symptomatic RP attacks, Percent Change from Baseline, Min” value (participants with SSc-RP; [3]) was −77.5% and the “Average duration of weekly symptomatic RP attacks, Percent Change from Baseline, Q1” value (participants with SSc-RP; [3]) was −77.50%. For the same compound, the “Average duration of weekly symptomatic RP attacks, Percent Change from Baseline, Q3” value (participants with SSc-RP; [3]) was 15.41%, the “Average Duration of weekly symptomatic RP attacks” value (participants with SSc-RP; [4]) was 3.0 min and the “Average Duration of weekly symptomatic RP attacks, Max” value (participants with SSc-RP; [4]) was 31.6 min. The “Average Duration of weekly symptomatic RP attacks, Q1” value (participants with SSc-RP; [4]) was 3.00 min, the “Average duration of weekly symptomatic RP attacks, Change from Baseline” value (participants with SSc-RP; [4]) was -16.7 min and the “Average duration of weekly symptomatic RP attacks, Change from Baseline, Max” value (participants with SSc-RP; [4]) was 4.1 min. The “Average duration of weekly symptomatic RP attacks, Change from Baseline, Mean” value (participants with SSc-RP; [4]) was -7.67 min, the “Average duration of weekly symptomatic RP attacks, Change from Baseline, Q1” value (participants with SSc-RP; [4]) was -16.74 min and the “Average duration of weekly symptomatic RP attacks, Change from Baseline, Q3” value (participants with SSc-RP; [4]) was 4.07 min. For the same compound, the “Average duration of weekly symptomatic RP attacks, Percent Change from Baseline, Max” value (participants with SSc-RP; [4]) was 15.4%, the “Average duration of weekly symptomatic RP attacks, Percent Change from Baseline, Mean” value (participants with SSc-RP; [4]) was −32.23% and the “Average duration of weekly symptomatic RP attacks, Percent Change from Baseline, Median” value (participants with SSc-RP; [4]) was −34.60%. The “Average duration of weekly symptomatic RP attacks, Percent Change from Baseline, Min” value (participants with SSc-RP; [4]) was −77.5%, the “Average duration of weekly symptomatic RP attacks, Percent Change from Baseline, Q1” value (participants with SSc-RP; [4]) was −77.50% and the “Average duration of weekly symptomatic RP attacks, Percent Change from Baseline, Q3” value (participants with SSc-RP; [4]) was 15.41%. The “Average duration of weekly symptomatic RP attacks, Baseline, Max” value (participants with SSc-RP; [5]) was 48.4, 48.4 minutes, the “Average duration of weekly symptomatic RP attacks, Baseline, Mean” value (participants with SSc-RP; [5]) was 48.38 min and the “Average duration of weekly symptomatic RP attacks, Baseline, Median” value (participants with SSc-RP; [5]) was 48.38 min. The “Average duration of weekly symptomatic RP attacks, Baseline, Min” value (participants with SSc-RP; [5]) was 48.4, 48.4 minutes, the “Average duration of weekly symptomatic RP attacks, Baseline, Q1” value (participants with SSc-RP; [5]) was 48.38, 48.38 minutes and the “Average duration of weekly symptomatic RP attacks, Baseline, Q3” value (participants with SSc-RP; [5]) was 48.38, 48.38 minutes. The “Average duration of weekly symptomatic RP attacks, Baseline” value (participants with SSc-RP; [6]) was 13.3 min, the “Average duration of weekly symptomatic RP attacks, Baseline, Max” value (participants with SSc-RP; [6]) was 26.4 min and the “Average duration of weekly symptomatic RP attacks, Baseline, Mean” value (participants with SSc-RP; [6]) was 19.86 min. The “Average duration of weekly symptomatic RP attacks, Baseline, Median” value (participants with SSc-RP; [6]) was 19.86 min, the “Average duration of weekly symptomatic RP attacks, Baseline, Q1” value (participants with SSc-RP; [6]) was 13.33 min and the “Average duration of weekly symptomatic RP attacks, Baseline, Q3” value (participants with SSc-RP; [6]) was 26.39 min. The “Average duration of weekly symptomatic RP attacks, Baseline” value (participants with SSc-RP; [7]) was 13.3 min and the “Average duration of weekly symptomatic RP attacks, Baseline, Max” value (participants with SSc-RP; [7]) was 48.4 min.
